ChEMBL document CHEMBL3046786, “Synthesis of piperazinyl benzothiazole/benzoxazole derivatives coupled with 1,3,4-oxadiazole-2-thiol: novel hybrid heterocycles as anticancer agents” (Med Chem Res, 2013)

Key:
Assay type in all cases: functional, cell-based
HeLa = experiment: Anticancer activity against Homo sapiens (human) HeLa cells assessed as inhibition of cell viability after 72 hr by MTT assay
A-431 = experiment: Anticancer activity against Homo sapiens (human) A431 cells assessed as inhibition of cell viability after 72 hr by MTT assay; settings: A-431, 72 h
MCF7 = experiment: Anticancer activity against Homo sapiens (human) MCF7 cells assessed as inhibition of cell viability after 72 hr by MTT assay; settings: MCF7, 72 h
HepG2 = experiment: Anticancer activity against Homo sapiens (human) HepG2 cells assessed as inhibition of cell viability after 72 hr by MTT assay; settings: HepG2, 72 h
A549 = experiment: Anticancer activity against Homo sapiens (human) A549 cells assessed as inhibition of cell viability after 72 hr by MTT assay; settings: A549, 72 h

c1ccc(-c2nnc(SCCCN3CCN(c4nc5ccccc5s4)CC3)o2)cc1
IC50 (HeLa): 229 µM | IC50 (A-431): 93.4 µM | IC50 (MCF7): 76.9 µM | IC50 (HepG2): 217 µM | IC50 (A549): 257 µM

O=C(NCc1nnc(SCCCN2CCN(c3nc4ccccc4s3)CC2)o1)c1ccccc1
IC50 (HeLa): 78.1 µM | IC50 (A-431): 55.9 µM | IC50 (MCF7): 39 µM | IC50 (HepG2): 325 µM | IC50 (A549): 88.7 µM

Fc1ccc(-c2nnc(SCCCN3CCN(c4nc5ccccc5o4)CC3)o2)cc1
IC50 (HeLa): 196 µM | IC50 (A-431): 136 µM | IC50 (MCF7): 52.3 µM | IC50 (HepG2): 83.8 µM | IC50 (A549): 75.7 µM

Brc1ccc(-c2nnc(SCCCN3CCN(c4nc5ccccc5o4)CC3)o2)cc1
IC50 (HeLa): 187 µM | IC50 (A-431): 57.8 µM | IC50 (MCF7): 115 µM | IC50 (HepG2): 67.5 µM | IC50 (A549): 123 µM

CC(C)(C)Oc1ccc(-c2nnc(SCCCN3CCN(c4nc5ccccc5o4)CC3)o2)cc1
IC50 (HeLa): 269 µM | IC50 (A-431): 65.8 µM | IC50 (MCF7): 94.9 µM | IC50 (HepG2): 121 µM | IC50 (A549): 263 µM

Oc1ccc(-c2nnc(SCCCN3CCN(c4nc5ccccc5o4)CC3)o2)cc1
IC50 (HeLa): 99.5 µM | IC50 (A-431): 116 µM | IC50 (MCF7): 260 µM | IC50 (HepG2): 502 µM | IC50 (A549): 181 µM

c1ccc(-c2nnc(SCCCN3CCN(c4nc5ccccc5o4)CC3)o2)cc1
IC50 (HeLa): 67 µM | IC50 (A-431): 57.6 µM | IC50 (MCF7): 117 µM | IC50 (HepG2): 102 µM | IC50 (A549): 108 µM

O=C(NCc1nnc(SCCCN2CCN(c3nc4ccccc4o3)CC2)o1)c1ccccc1
IC50 (HeLa): 63.9 µM | IC50 (A-431): 36.9 µM | IC50 (MCF7): 52.7 µM | IC50 (HepG2): 88.9 µM | IC50 (A549): 102 µM

COc1ccc(-c2nnc(SCCCN3CCN(c4nc5ccccc5s4)CC3)o2)cc1
IC50 (HeLa): 165 µM | IC50 (A-431): 56.2 µM | IC50 (MCF7): 171 µM | IC50 (HepG2): 134 µM | IC50 (A549): 90.3 µM

O=[N+]([O-])c1ccc(-c2nnc(SCCCN3CCN(c4nc5ccccc5s4)CC3)o2)cc1
IC50 (HeLa): 97.8 µM | IC50 (A-431): 46.5 µM | IC50 (MCF7): 118 µM | IC50 (HepG2): 93.3 µM | IC50 (A549): 96.6 µM

Cc1ccc(-c2nnc(SCCCN3CCN(c4nc5ccccc5s4)CC3)o2)cc1
IC50 (HeLa): 179 µM | IC50 (A-431): 61.6 µM | IC50 (MCF7): 107 µM | IC50 (HepG2): 96.7 µM | IC50 (A549): 53.9 µM

Clc1ccc(-c2nnc(SCCCN3CCN(c4nc5ccccc5s4)CC3)o2)cc1
IC50 (HeLa): 177 µM | IC50 (A-431): 69.2 µM | IC50 (MCF7): 116 µM | IC50 (HepG2): 87.7 µM | IC50 (A549): 110 µM

Fc1ccc(-c2nnc(SCCCN3CCN(c4nc5ccccc5s4)CC3)o2)cc1
IC50 (HeLa): 134 µM | IC50 (A-431): 67 µM | IC50 (MCF7): 84.1 µM | IC50 (HepG2): 234 µM | IC50 (A549): 71.7 µM

Brc1ccc(-c2nnc(SCCCN3CCN(c4nc5ccccc5s4)CC3)o2)cc1
IC50 (HeLa): 243 µM | IC50 (A-431): 51.6 µM | IC50 (MCF7): 96.3 µM | IC50 (HepG2): 103 µM | IC50 (A549): 62.5 µM

CC(C)(C)Oc1ccc(-c2nnc(SCCCN3CCN(c4nc5ccccc5s4)CC3)o2)cc1
IC50 (HeLa): 217 µM | IC50 (A-431): 67 µM | IC50 (MCF7): 89.3 µM | IC50 (HepG2): 202 µM | IC50 (A549): 71.6 µM

Oc1ccc(-c2nnc(SCCCN3CCN(c4nc5ccccc5s4)CC3)o2)cc1
IC50 (HeLa): 139 µM | IC50 (A-431): 54.7 µM | IC50 (MCF7): 81.9 µM | IC50 (HepG2): 364 µM | IC50 (A549): 62.1 µM

COc1ccc(-c2nnc(SCCCN3CCN(c4nc5ccccc5o4)CC3)o2)cc1
IC50 (HeLa): 210 µM | IC50 (A-431): 52.7 µM | IC50 (MCF7): 52.8 µM | IC50 (HepG2): 66.1 µM | IC50 (A549): 93.5 µM

O=[N+]([O-])c1ccc(-c2nnc(SCCCN3CCN(c4nc5ccccc5o4)CC3)o2)cc1
IC50 (HeLa): 114 µM | IC50 (A-431): 46.9 µM | IC50 (MCF7): 90.1 µM | IC50 (HepG2): 67.2 µM | IC50 (A549): 90.8 µM

Cc1ccc(-c2nnc(SCCCN3CCN(c4nc5ccccc5o4)CC3)o2)cc1
IC50 (HeLa): 133 µM | IC50 (A-431): 100 µM | IC50 (MCF7): 60.4 µM | IC50 (HepG2): 154 µM | IC50 (A549): 106 µM

Clc1ccc(-c2nnc(SCCCN3CCN(c4nc5ccccc5o4)CC3)o2)cc1
IC50 (HeLa): 101 µM | IC50 (A-431): 89.6 µM | IC50 (MCF7): 99.7 µM | IC50 (HepG2): 121 µM | IC50 (A549): 127 µM

COc1cc(/C=C/C(=O)CC(=O)/C=C/c2ccc(O)c(OC)c2)ccc1O [CURCUMIN]
IC50 (A-431): 22 µM | IC50 (MCF7): 26 µM | IC50 (HepG2): 16 µM | IC50 (A549): 22 µM
